For this assay, the target named is 3R Shaker K channel (Drosophila melanogaster, UniProt P08510, A359R/M356R). As to the kind of experiment: G(V) shift of 3R Shaker K channel stably expressed in CHO-K1 cells, whole-cell patch clamp. Conditions: 10 μM, pH 7.4. Type of assay: cell-based. The text has this: All animal experiments were approved by the local Animal Care and Use Committee and followed international guidelines. A modified Shaker H4 channel^30, with removed N-type inactivation (ShH4IR)^31, here called the wild type (WT) channel, was expressed in oocytes. In addition, a modified 3R Shaker K channel where two introduced positive charged arginines (M356R and A359R) in addition to one native arginine (R362) makes the channel more sensitive to DHA^16, was expressed in oocytes and in a CHO—K1 stable cell line.
For the modified 3R Shaker K channel a stable cell line was generated. The construct was cloned into the pcDNA3 vector. CHO—K1 cells were plated into T75 culture flasks and grown without penicillin/streptomycin. […]
where IK is the average current from the steady-state phase at the end of each 100-ms pulse, V is the membrane voltage, and Vrev is the reversal potential for K^+, (set to −80 mV for the oocytes, and calculated to be −89 mV for the CHO—K1 cells).
where A is amplitude of the curve, V is the absolute membrane voltage, V1/2 is the midpoint, s is the slope and n is an exponent set to 4^17. The compound-induced G(V) shift was determined at the 10% level of the maximum conductance in control solution^17. The compound-induced G(V) shift in CHO—K1 was quantified by subtracting the control V1/2 from the compound V1/2 when n was set to 1.
(In general: The patch-clamp technique gives a direct electrical read-out from membranes.)

Data on one compound can be found in patent US20180193294A1, “Dehydroabietic acid (DHAA) derivatives for use as ion channel openers” (priority 2015, published 2018).

Molecules are shown by their SMILES.

Sequence of 3R Shaker K channel (P08510 whole entry M356R/A359R): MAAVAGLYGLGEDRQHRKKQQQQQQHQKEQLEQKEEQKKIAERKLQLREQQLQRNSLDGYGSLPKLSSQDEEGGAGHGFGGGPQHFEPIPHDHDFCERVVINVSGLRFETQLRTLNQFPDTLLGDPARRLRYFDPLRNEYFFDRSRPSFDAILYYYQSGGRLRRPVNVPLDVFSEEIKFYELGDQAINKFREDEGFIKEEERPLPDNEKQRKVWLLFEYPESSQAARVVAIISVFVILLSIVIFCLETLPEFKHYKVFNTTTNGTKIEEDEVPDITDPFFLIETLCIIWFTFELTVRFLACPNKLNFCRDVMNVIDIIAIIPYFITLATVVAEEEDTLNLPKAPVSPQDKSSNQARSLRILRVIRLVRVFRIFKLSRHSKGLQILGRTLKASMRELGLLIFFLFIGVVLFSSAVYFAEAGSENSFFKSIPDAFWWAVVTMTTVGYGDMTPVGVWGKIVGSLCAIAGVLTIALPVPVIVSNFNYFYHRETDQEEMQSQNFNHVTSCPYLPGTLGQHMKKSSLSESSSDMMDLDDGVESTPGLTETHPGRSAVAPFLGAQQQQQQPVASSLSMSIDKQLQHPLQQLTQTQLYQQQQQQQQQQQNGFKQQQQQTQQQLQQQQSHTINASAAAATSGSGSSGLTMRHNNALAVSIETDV

Consider `CC(C)c1ccc2c(c1)C(C(=O)O)CC1[C@](C)(C(=O)O)CCC[C@]21C` (stereo partly shown) [Wu35], for which the “G(V) shift in CHO cells” value is “very poor shifter”.
